From patent EP2388012A1 (Roehampton University, priority 2010, dated 2011)
Where no end group is shown, it is not given here. The star is where a group is joined. Biotin = O=C1N[C@H]2[C@H](CS[C@H]2CCCCC(=O)*)N1

Tests used:
[1] = system: Aß 1-42 fibrils; type: binding, human
[2] = system: Aß 25-35 fibrils; type: binding, human
[3] = system: IAPP 1-37 fibrils; type: binding, human
[4] = system: IAPP 20-29 fibrils; type: binding, human
[5] = system: Amyloid-Bri fibrils; type: binding, human
[6] = system: Amyloid-Dan fibrils; type: binding, human
[7] = system: PrP 106-126 fibrils
[8] = system: PrP 118-135 fibrils
[9] = system: mouse LHRH secreting cell line (GT1); type: cell-based
[10] = system: human neuroblastoma SH-SY5Y cell line; type: cell-based
[11] = system: biotinylated Aß 1-42 to the Kissorphin-6 peptide; type: binding, human
[12] = system: biotinylated IAPP 1-37 to the Kissorphin-6 peptide; type: binding, human
[13] = system: biotinylated PrP 106-126 to the Kissorphin-6 peptide
[14] = target: GPR-54 G-protein coupled receptor (mouse) (UniProt Q91V45); test: cell-based or functional assay
[15] = system: Aß 1-42; type: binding, human; details: 4°C 16 hours
[16] = system: IAPP 1-37; type: binding, human; details: 4°C 16 hours
[17] = system: PrP 106-126
[18] = target: Kissorphin-6 (human)
[19] = target: T1, GPR-54 G-protein coupled receptor (mouse), Q91V45; test: cell-based or functional assay
T1 chain: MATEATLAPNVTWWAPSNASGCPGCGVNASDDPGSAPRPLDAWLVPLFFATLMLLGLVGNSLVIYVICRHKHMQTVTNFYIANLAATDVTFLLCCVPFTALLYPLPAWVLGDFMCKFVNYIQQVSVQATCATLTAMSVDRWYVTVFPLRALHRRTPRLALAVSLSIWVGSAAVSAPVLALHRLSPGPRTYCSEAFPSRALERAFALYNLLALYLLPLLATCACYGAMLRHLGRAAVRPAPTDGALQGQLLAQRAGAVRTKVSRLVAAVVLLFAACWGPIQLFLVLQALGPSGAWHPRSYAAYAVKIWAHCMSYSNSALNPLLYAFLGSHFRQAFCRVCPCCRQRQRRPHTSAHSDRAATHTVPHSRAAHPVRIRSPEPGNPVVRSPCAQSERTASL

Biotinylated Kisspeptin-54: N-terminally Biotinylated Kisspeptin-54, purchased from Bachem or Alpha Diagnostics (Biotin-GTSLSPPPESSGSPQQPGLSAPHSRQIPAPQGAVLVQREKDLPNYNWNSFGLRF; ends and bridges not checked; UniProt Q15726 68-121, looked up)
binding to plates coated with Aß 1-42 fibrils [1]: bound | binding to plates coated with Aß 25-35 fibrils [2]: bound | binding to plates coated with IAPP 1-37 fibrils [3]: bound | binding to plates coated with IAPP 20-29 fibrils [4]: bound | binding to Amyloid-Bri fibrils [5]: No binding | binding to Amyloid-Dan fibrils [6]: No binding | binding to plates coated with PrP 106-126 fibrils [7]: bound | binding to plates coated with PrP 118-135 fibrils [8]: bound

Biotinylated Kisspeptin-10: N-terminally Biotinylated Kisspeptin-10, purchased from Bachem or Alpha Diagnostics
binding to plates coated with Aß 1-42 fibrils [1]: bound | binding to plates coated with Aß 25-35 fibrils [2]: bound | binding to plates coated with IAPP 1-37 fibrils [3]: bound | binding to plates coated with IAPP 20-29 fibrils [4]: bound | binding to Amyloid-Bri fibrils [5]: No binding | binding to Amyloid-Dan fibrils [6]: No binding | binding to plates coated with PrP 106-126 fibrils [7]: bound | binding to plates coated with PrP 118-135 fibrils [8]: bound

Kissorphin-6 (3-6): shorter sequence, SEQ ID No. 11, residues 3-6 of Kissorphin-6 (WNSF)
effect on Kisspeptin-10 stimulated release of immunoreactive LHRH [9]: no significant effect | effect on Kisspeptin-13 stimulated release of immunoreactive LHRH [9]: no significant effect | effect on toxicity of Aß 1-42 [10]: significantly inhibited | effect on toxicity of Aß 25-35 [10]: significantly inhibited | effect on toxicity of IAPP 1-37 [10]: no effect | effect on toxicity of IAPP 20-29 [10]: no effect | effect on toxicity of PrP 106-126 [10]: no effect | effect on toxicity of PrP 118-135 [10]: no effect | effect on toxicity of the Amyloid-Bri peptide [10]: unaffected | effect on toxicity of the Amyloid-Dan peptide [10]: unaffected

Aß 31-35: Aß fragment, the shortest cytotoxic form of Aß (IIGLM; Amyloid-beta protein 40; UniProt P05067 702-706, looked up, fragment)
effect on binding of biotinylated Aß 1-42 to the Kissorphin-6 peptide [11]: no effect | effect on binding of biotinylated IAPP 1-37 to the Kissorphin-6 peptide [12]: no effect | effect on binding of biotinylated PrP 106-126 to the Kissorphin-6 peptide [13]: no effect

Kisspeptin-10 (peptide)
LHRH release from mouse GT1 cells [14]: 4 fold

Aß 1-28: Aß fragment, unlabelled competitor
effect on binding of biotinylated Aß 1-42 to the Kissorphin-6 peptide [11]: no effect | effect on binding of biotinylated IAPP 1-37 to the Kissorphin-6 peptide [12]: no effect | effect on binding of biotinylated PrP 106-126 to the Kissorphin-6 peptide [13]: no effect

Kisspeptin-54 (27-54): fragment 27-54 of Kisspeptin-54 (IPAPQGAVLVQREKDLPNYNWNSFGLRF)
binding of biotinylated Aß 1-42 to peptide coated plates [15]: significant binding | binding of biotinylated IAPP 1-37 to peptide coated plates [16]: significant binding | effect on toxicity of Aß 1-42 [10]: significantly inhibited | effect on toxicity of Aß 25-35 [10]: significantly inhibited | effect on toxicity of IAPP 1-37 [10]: significantly inhibited | effect on toxicity of IAPP 20-29 [10]: significantly inhibited | effect on toxicity of PrP 106-126 [10]: significantly inhibited | effect on toxicity of PrP 118-135 [10]: significantly inhibited | effect on toxicity of the Amyloid-Bri peptide [10]: unaffected | effect on toxicity of the Amyloid-Dan peptide [10]: unaffected | binding of biotinylated PrP 106-126 to peptide coated plates [17]: significant binding

Aß 29-40: Aß fragment, unlabelled competitor (GAIIGLMVGGVV; Amyloid-beta protein 40; UniProt P05067 700-711, looked up, fragment)
effect on binding of biotinylated Aß 1-42 to the Kissorphin-6 peptide [11]: strongly inhibited | effect on binding of biotinylated IAPP 1-37 to the Kissorphin-6 peptide [12]: strongly inhibited | effect on binding of biotinylated PrP 106-126 to the Kissorphin-6 peptide [13]: strongly inhibited

Kisspeptin-54: the 54 amino acid form of Kisspeptin, peptide derived from the Kiss1 gene, ligand for GPR-54 (SEQ ID No. 1)
binding of biotinylated Aß 1-42 to peptide coated plates [15]: significant binding | binding of biotinylated IAPP 1-37 to peptide coated plates [16]: significant binding | effect on toxicity of Aß 1-42 [10]: significantly inhibited | effect on toxicity of Aß 25-35 [10]: significantly inhibited | effect on toxicity of IAPP 1-37 [10]: significantly inhibited | effect on toxicity of IAPP 20-29 [10]: significantly inhibited | effect on toxicity of PrP 106-126 [10]: significantly inhibited | effect on toxicity of PrP 118-135 [10]: significantly inhibited | effect on toxicity of the Amyloid-Bri peptide [10]: unaffected | effect on toxicity of the Amyloid-Dan peptide [10]: unaffected | binding of biotinylated PrP 106-126 to peptide coated plates [17]: significant binding

Aß 25-35: Aß fragment, functional neurotoxic domain (GSNKGAIIGLM)
effect on binding of biotinylated Aß 1-42 to the Kissorphin-6 peptide [11]: strongly inhibited | effect on binding of biotinylated IAPP 1-37 to the Kissorphin-6 peptide [12]: strongly inhibited | effect on binding of biotinylated PrP 106-126 to the Kissorphin-6 peptide [13]: strongly inhibited

KTNMKHMAGAAAAGAVVGGLG (modifications not checked) [PrP 106-126]
Kd [18]: 34.2 nM

LPNYNWNSFGLRF (modifications not checked) [Kisspeptin-13, Q15726 109-121]
LHRH release from mouse GT1 cells [19]: 4 fold

KCNTATCATQRLANFLVHSSNNFGAILSSTNVGSNTY (modifications not checked) [IAPP 1-37]
Kd [18]: 11.6 nM
